Assay results reported in US20090099192A1, “Substituted 1H-pyrrole-2,5-diones” (Bayer CropScience AG, priority 2004, published 2009).

Assays:
[1] = system: larvae of the mustard beetle (Phaedon cochleariae); experiment: Phaedon larvae test (cabbage leaves dipped); format: in vivo; conditions: for Kill rate in % after 7 d: leaf dip, Brassica oleracea
Description: [table] To produce a suitable preparation of active compound, 1 part by weight of active compound is mixed with the stated amount of solvent and the stated amount of emulsifier, and the concentrate is diluted with water to the desired concentration. Cabbage leaves (Brassica oleracea) are treated by being dipped into the active compound preparation of the desired concentration and populated with larvae of the mustard beetle (Phaedon cochleariae) while the leaves are still moist. After the desired period of time, the kill in % is determined. 100% means that all beetle larvae have been killed; 0% means that none of the beetle larvae have been killed.

[2] = logP determination by HPLC on reversed-phase column (C 18), EEC Directive 79/831 Annex V.A8; format: physicochemical; conditions: reversed-phase C 18, 43° C., acid range (0.1% aqueous phosphoric acid, acetonitrile), marked a)
Description: a) The logP values given in table 1 were determined in accordance with EEC Directive 79/831 Annex V.A8 by HPLC (High Performance Liquid Chromatography) on a reversed-phase column (C 18). Temperature: 43° C. (a) Mobile phases for the determination in the acid range: 0.1% aqueous phosphoric acid, acetonitrile; linear gradient from 10% acetonitrile to 90% acetonitrile—corresponding measurement results are marked a) in table 1. Calibration was carried out using unbranched alkan-2-ones (having 3 to 16 carbon atoms) with known logP values (determination of the logP values by the retention times using linear interpolation between two successive alkanones).

[3] = system: larvae of the mustard beetle (Phaedon cochleariae); experiment: Phaedon test (spray treatment); format: in vivo; conditions: for Kill rate in % after 7 d: 500 g/ha, spray, Brassica pekinensis disks
Description: (§1) [table] To produce a suitable preparation of active compound, 1 part by weight of active compound is mixed with the stated amounts of solvents and emulsifier, and the concentrate is diluted with emulsifier-containing water to the desired concentration. Disks of Chinese cabbage (Brassica pekinensis) are sprayed with an active compound preparation of the desired concentration and, after drying, populated with larvae of the mustard beetle (Phaedon cochleariae). After the desired period of time, the effect in % is determined. 100% means that all beetle larvae have been killed; 0% means that none of the beetle larvae have been killed.

[4] = system: caterpillars of the army worm (Spodoptera frugiperda); experiment: Spodoptera frugiperda test (corn leaf disks sprayed); format: in vivo; conditions: for Kill rate in % after 7 d: 500 g/ha, spray, Zea mays leaf disks
Description: as §1, with “corn leaves (Zea mays)” for “Chinese cabbage (Brassica pekinensis)”, “caterpillars” for “larvae”, “army worm (Spodoptera frugiperda).” for “mustard beetle (Phaedon cochleariae).”, “caterpillars” for “beetle larvae”

[5] = system: common spidermite (Tetranychus urticae); experiment: Tetranychus test; format: in vivo; conditions: for Kill rate in % after 5 d: 500 ppm, spray, Phaseolus vulgaris disks
Description: To produce a suitable preparation of active compound, 1 part by weight of active compound is mixed with the stated amounts of solvent and emulsifier, and the concentrate is diluted with emulsifier-containing water to the desired concentration.
Disks of beans (Phaseolus vulgaris), which are infested by all stages of the common spidermite (Tetranychus urticae) are sprayed with an active compound preparation of the desired concentration.
After the desired period of time, the effect in % is determined. 100% means that all spidermites have been killed; 0% means that none of the spidermites have been killed.

[6] = system: green peach aphid (Myzus persicae); experiment: Myzus test (spray treatment, Brassica pekinensis); format: in vivo; conditions: for Kill rate in % after 5 d: 500 g/ha, spray, Brassica pekinensis disks
Description: as §1, with “pekinensis) which are infested by all stages of the green peach aphid (Myzus persicae)” for “pekinensis)”, “concentration.” for “concentration and, after drying, populated with larvae of the mustard beetle (Phaedon cochleariae).”, “aphids” for “beetle larvae”

| Structure (SMILES) | logP [2] | activity in the Phaedon larvae test [1] | activity in the Phaedon test (spray treatment) [3] | Kill rate in % after 7 d [3] | also measured |
| --- | --- | --- | --- | --- | --- |
| Cc1cc(C)c(C2=C(O)C(=O)N(Cc3ccccc3)C2=O)c(C)c1 [Example 5] |  | good activity |  |  | Kill rate in % after 7 d ([1]; 1000 ppm): 100% |
| CC(C)N1C(=O)C(O)=C(c2cccc(C(F)(F)F)c2)C1=O [Example 6] |  | good activity |  |  | Kill rate in % after 7 d ([1]; 1000 ppm): 100% |
| CC(C)(c1ccccc1)N1C(=O)C(O)=C(c2cccc(C(F)(F)F)c2)C1=O [Example 7] |  | good activity |  |  | Kill rate in % after 7 d ([1]; 1000 ppm): 100% |
| O=C1C(O)=C(c2ccc(C(F)(F)F)cc2)C(=O)N1CC(F)(F)F [Example 8] |  | good activity |  |  | Kill rate in % after 7 d ([1]; 500 ppm): 100% |
| O=C1C(O)=C(c2ccc(OC(F)(F)F)cc2)C(=O)N1c1ccc(OC(F)(F)F)cc1 [Example 9] | logP = 4.12^a) | good activity |  |  | Kill rate in % after 7 d ([1]; 500 ppm): 90% |
| Cc1ccccc1C1=C(O)C(=O)N(C2CCCC(C(F)(F)F)C2)C1=O (stereo not shown) [Example 188] | logP = 3.11^a) |  | good activity | 100% | activity in the Spodoptera frugiperda test (spray) [4]: good activity; Kill rate in % after 7 d [4]: 100% |
| O=C1C(OCc2ccc(Cl)cc2)=C(c2ccccc2Cl)C(=O)N1C1CCCC(C(F)(F)F)C1 (stereo not shown) [Example 203] |  |  | good activity | 100% | activity in the Spodoptera frugiperda test (spray) [4]: good activity; Kill rate in % after 7 d [4]: 100% |
| CC(C)(C)C(=O)OC1=C(c2ccccc2Cl)C(=O)N(C2CCC(C(F)(F)F)CC2)C1=O (stereo not shown) [Example 207] | logP = 5.31^a) |  | good activity | 100% | activity in the Myzus test (spray, Brassica pekinensis) [6]: good activity; Kill rate in % after 5 d [6]: 100%; Kill rate in % after 5 d [5]: 90% |
| O=C1C(O)=C(c2c(F)cccc2F)C(=O)N1C1CCC(C(F)(F)F)CC1 (stereo not shown) [Example 209] |  | good activity |  |  | Kill rate in % after 7 d ([1]; 500 ppm): 100% |
| O=C1C(O)=C(c2ccc(C(F)(F)F)cc2)C(=O)N1C1CCC(C(F)(F)F)CC1 (stereo not shown) [Example 211] | logP = 4.28^a) | good activity |  |  | Kill rate in % after 7 d ([1]; 500 ppm): 90% |
| O=C1C(O)=C(c2ccccc2F)C(=O)N1C1CCCC(C(F)(F)F)C1 (stereo not shown) [Example 213] | logP = 3.42^a) | good activity |  |  | Kill rate in % after 7 d ([1]; 500 ppm): 100% |
| Cc1ccccc1C1=C(O)C(=O)N(C2CC(C(F)(F)F)CC(C(F)(F)F)C2)C1=O (stereo not shown) [Example 216] | logP = 3.85^a) | good activity |  |  | Kill rate in % after 7 d ([1]; 500 ppm): 100% |
| O=C1C(O)=C(c2ccccc2Br)C(=O)N1C1CCCC(C(F)(F)F)C1 (stereo not shown) [Example 218] |  |  | good activity | 100% | activity in the Spodoptera frugiperda test (spray) [4]: good activity; Kill rate in % after 7 d [4]: 100%; activity in the Myzus test (spray, Brassica pekinensis) [6]: good activity; Kill rate in % after 5 d [6]: 80% |
| CC(C)(C)C(=O)OC1=C(c2ccccc2I)C(=O)N(C2CCCC(C(F)(F)F)C2)C1=O (stereo not shown) [Example 221] |  |  | good activity | 100% | activity in the Myzus test (spray, Brassica pekinensis) [6]: good activity; Kill rate in % after 5 d [6]: 100%; activity in the Tetranychus test [5]: good activity; Kill rate in % after 5 d [5]: 80% |

Second part, led by results:

| logP [2] | Structure (SMILES) | activity in the Phaedon larvae test [1] | activity in the Phaedon test (spray treatment) [3] | Kill rate in % after 7 d [3] | also measured |
| --- | --- | --- | --- | --- | --- |
| logP = 2.53^a) | O=C1C(O)=C(c2ccc(Cl)cc2Br)C(=O)N1C1CCCC(C(F)(F)F)C1 (stereo not shown) [Example 186] |  | good activity | 100% | activity in the Spodoptera frugiperda test (spray) [4]: good activity; Kill rate in % after 7 d [4]: 100% |
| logP = 3.32^a) | COc1ccccc1C1=C(O)C(=O)N(C2CCCC(C(F)(F)F)C2)C1=O (stereo not shown) [Example 189] |  | good activity | 83% |  |
| logP = 3.77^a) | O=C1C(O)=C(c2ccccc2OC(F)(F)F)C(=O)N1C1CCCC(C(F)(F)F)C1 (stereo not shown) [Example 190] |  | good activity | 100% | activity in the Spodoptera frugiperda test (spray) [4]: good activity; Kill rate in % after 7 d [4]: 83% |
| logP = 4.05^a) | O=C1C(O)=C(c2c(Cl)cc(C(F)(F)F)cc2Cl)C(=O)N1C1CCCC(C(F)(F)F)C1 (stereo not shown) [Example 191] |  | good activity | 100% | activity in the Tetranychus test [5]: good activity; Kill rate in % after 5 d [5]: 90% |
| logP = 3.42^a) | O=C1C(O)=C(c2cc(F)cc(F)c2F)C(=O)N1C1CCCC(C(F)(F)F)C1 (stereo not shown) [Example 193] |  | good activity | 100% | activity in the Tetranychus test [5]: good activity; Kill rate in % after 5 d [5]: 90% |
| logP = 3.01^a) | O=C1C(O)=C(c2ccccc2[N+](=O)[O-])C(=O)N1C1CCCC(C(F)(F)F)C1 (stereo not shown) [Example 194] |  | good activity | 100% |  |
| logP = 3.61^a) | CC1CCCC(N2C(=O)C(O)=C(c3ccccc3Br)C2=O)C1 (stereo not shown) [Example 197] |  | good activity | 100% | activity in the Spodoptera frugiperda test (spray) [4]: good activity; Kill rate in % after 7 d [4]: 100% |
| logP = 3.46^a) | O=C1C(O)=C(c2cc(F)ccc2Br)C(=O)N1C1CCCC(C(F)(F)F)C1 (stereo not shown) [Example 198] |  | good activity | 100% |  |
| logP = 4.18^a) | CC1CC(N2C(=O)C(O)=C(c3ccccc3Cl)C2=O)CC(C)(C)C1 (stereo not shown) [Example 199] |  | good activity | 100% |  |
| logP = 4.53^a) | CCOCOC1=C(c2ccccc2Cl)C(=O)N(C2CCCC(C(F)(F)F)C2)C1=O (stereo not shown) [Example 202] |  | good activity | 100% | activity in the Spodoptera frugiperda test (spray) [4]: good activity; Kill rate in % after 7 d [4]: 100%; activity in the Myzus test (spray, Brassica pekinensis) [6]: good activity; Kill rate in % after 5 d [6]: 80%; activity in the Tetranychus test [5]: good activity; Kill rate in % after 5 d [5]: 80% |
| logP = 5.01^a) | O=C1C(OCc2ccccc2)=C(c2ccccc2Cl)C(=O)N1C1CCCC(C(F)(F)F)C1 (stereo not shown) [Example 204] |  | good activity | 100% | activity in the Spodoptera frugiperda test (spray) [4]: good activity; Kill rate in % after 7 d [4]: 100% |
| logP = 5.22^a) | CC(C)(C)C(=O)OC1=C(c2ccccc2Cl)C(=O)N(C2CCCCC2C(F)(F)F)C1=O (stereo not shown) [Example 206] |  |  |  | activity in the Myzus test (spray, Brassica pekinensis) [6]: good activity; Kill rate in % after 5 d [6]: 90% |
| logP = 4.89^a) | Cc1ccc(S(=O)(=O)OC2=C(c3ccccc3Cl)C(=O)N(C3CCCC(C(F)(F)F)C3)C2=O)cc1 (stereo not shown) [Example 208] |  | good activity | 100% |  |
| logP = 3.59^a) | O=C1C(O)=C(c2ccccc2Cl)C(=O)N1C1CCC(C(F)(F)F)CC1 (stereo not shown) [Example 210] | good activity |  |  | Kill rate in % after 7 d ([1]; 500 ppm): 100% |
